We go through 20 compounds from patent US11078216B2, “Bisaryl amides as NRF2 activators” (GLAXOSMITHKLINE INTELLECTUAL PROPERTY DEVELOPMENT LIMITED, priority 2016, dated 2021).

Counter-ions that a name gives are not always drawn. Like-named read-outs stand apart in the source and are kept apart here.

The assay concerns NRF2 (NQO1 activity as marker for NRF2 activation), BEAS-2B cells. Put plainly: BEAS-2B NQO1 MTT Assay. To be noted: EC50 of NQO1 specific activity induction, 48 hours incubation, read-out: EC50. The class given is cell-based. Put shortly: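 BEAS-2B cells were exposed to compound for 48 h at 37° C, 5% CO2, then lysed. NQO1 activity was measured kinetically by MTT reduction at 570 nm over 30 minutes; EC50 came from 3-parameter fit of Delta OD/min versus log concentration.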

On to `CCOCCOc1ncc(NC(=O)C(C)(C)[C@@H](c2ccc(C)c(CN3C[C@@H](CC)Oc4ncccc4S3(=O)=O)c2)c2ccc3c(nnn3CC)c2C)cn1` [Example 124, (S)—N-(2-(2-Ethoxyethoxy)pyrimidin-5-yl)-3-(3-(((R)-4-ethyl-1,1-dioxido-3,4-dihydro-2H-pyrido[2,3-b][1,4,5]oxathiazepin-2-yl)methyl)-4-methylphenyl)-3-(1-ethyl-4-methyl-1H-benzo[d][1,2,3]triazol-5-yl)-2,2-dimethylpropanamide], for which, under “Homo sapiens”, the EC50 lay within 1 to 10 nM. Same read-out and setting: the result for `CCn1cc(CO[C@H](c2ccc(C)c(CN3C[C@@H](C)Cc4ccncc4S3(=O)=O)c2)C(C)(C)C(=O)Nc2cccnc2)nn1` [Example 48, (R)-3-((1-Ethyl-1H-1,2,3-triazol-4-yl)methoxy)-2,2-dimethyl-3-(4-methyl-3-(((S)-4-methyl-1,1-dioxido-4,5-dihydropyrido[4,3-f][1,2]thiazepin-2(3H)-yl)methyl)phenyl)-N-(pyridin-3-yl)propanamide, Formic Acid Salt] reads 100 to 1000 nM. Still for that read-out and setting: as for `CC[C@@H]1CN(Cc2cc([C@@H](c3ccc4c(nnn4CC)c3C)[C@@H](C)C(=O)Nc3cccnc3)ccc2C)S(=O)(=O)c2cccnc2O1` [Example 176], the figure is 1 to 10 nM; as for `CC[C@@H]1CN(Cc2cc([C@H](CC(=O)NCC3CCOC3)c3ccc4c(nnn4CC)c3C)ccc2C)S(=O)(=O)c2cccnc2O1` (stereo partly drawn) [Example 26, (3S)-3-(3-(((R)-4-Ethyl-1,1-dioxido-3,4-dihydro-2H-pyrido[2,3-b][1,4,5]oxathiazepin-2-yl)methyl)-4-methylphenyl)-3-(1-ethyl-4-methyl-1H-benzo[d][1,2,3]triazol-5-yl)-N-((tetrahydrofuran-3-yl)methyl)propanamide], 100 to 1000 nM. On to `CCCn1cc(CO[C@H](c2ccc(C)c(CN3C[C@@H](C)Cc4ccccc4S3(=O)=O)c2)C(C)(C)C(=O)Nc2cccnc2)nn1` [Example 51, (R)-2,2-Dimethyl-3-(4-methyl-3-(((S)-4-methyl-1,1-dioxido-4,5-dihydrobenzo[f][1,2]thiazepin-2(3H)-yl(methyl)phenyl)-3-((1-propyl-1H-1,2,3-triazol-4-yl)methoxy)-N-(pyridin-3-yl)propanamide, Formic acid salt], for which the EC50 is 100 to 1000 nM.

Consider `CC[C@@H]1CN(Cc2cc([C@@H](c3ccc4c(nnn4CC)c3C)C(C)(C)C(=O)Nc3cnc(OCC(N)CO)nc3)ccc2C)S(=O)(=O)c2cccnc2O1` (stereo partly drawn) [Example 129, (3S)-N-(2-(2-Amino-3-hydroxypropoxy)pyri-midin-5-yl)-3-(3-(((R)-4-ethyl-1,1-dioxido-3,4-dihydro-2H-pyrido[2,3-b][1,4,5]oxathiazepin-2-yl)methyl)-4-methylphenyl)-3-(1-ethyl-4-methyl-1H-benzo[d][1,2,3]triazol-5-yl)-2,2-dimethylpropanamide], for which the EC50 (Homo sapiens) lay within 100 to 1000 nM.

As to `CC[C@@H]1CN(Cc2cc([C@@H](c3ccc4c(nnn4CC)c3C)C(C)(C)C(=O)NC(CC(=O)O)c3ccncc3)ccc2C)S(=O)(=O)c2ccccc2O1` (stereo partly drawn) [Example 204, 3-((S)-3-(3-(((R)-4-ethyl-1,1-dioxido-3,4-dihydro-2H-benzo[b][1,4,5]oxathiazepin-2-yl)methyl)-4-methylphenyl)-3-(1-ethyl-4-methyl-1H-benzo[d][1,2,3]triazol-5-yl)-2,2-dimethylpropanamido)-3-(pyridin-4-yl)propanoic acid], the EC50 (Homo sapiens) was 100 to 1000 nM. The same measure, in the same setting: as for `CCn1nnc2c(C)c([C@H](c3ccc(C)c(CN4C[C@@H](C)Cc5cc(C(F)(F)F)ccc5S4(=O)=O)c3)C(C)(C)C(=O)Nc3cccnc3)cc(OC)c21` [Example 66, (S)-3-(1-Ethyl-7-methoxy-4-methyl-1H-benzo[d][1,2,3]triazol-5-yl)-2,2-dimethyl-3-(4-methyl-3-(((S)-4-methyl-1,1-dioxido-7-(trifluoromethyl)-4,5-dihydrobenzo[f][1,2]thiazepin-2(3H)-yl)methyl)phenyl)-N-(pyridin-3-yl)propanamide], the figure is 10 to 100 nM.

For `CC[C@@H]1CN(Cc2cc([C@@H](c3ccc4c(nnn4CC)c3C)C(C)(C)NC(N)=O)ccc2C)S(=O)(=O)c2ccccc2O1` [Example 99, 1-((S)-1-(3-(((R)-4-ethyl-1,1-dioxido-3,4-dihydro-2H-benzo[b][1,4,5]oxathiazepin-2-yl)methyl)-4-methylphenyl)-1-(1-ethyl-4-methyl-1H-benzo[d][1,2,3]triazol-5-yl)-2-methylpropan-2-yl)urea], the EC50 (Homo sapiens) lay within 100 to 1000 nM.

For the compound `CC[C@@H]1CN(Cc2cc([C@@H](c3ccc4c(nnn4CC)c3C)C(C)(C)NC(=O)c3cnc(S(C)(=O)=O)nc3)ccc2C)S(=O)(=O)c2ccccc2O1` [Example 157, N—((S)-1-(3-(((R)-4-Ethyl-1,1-dioxido-3,4-dihydro-2H-benzo[b][1,4,5]oxathiazepin-2-yl)methyl)-4-methylphenyl)-1-(1-ethyl-4-methyl-1H-benzo[d][1,2,3]triazol-5-yl)-2-methylpropan-2-yl)-2-(methylsulfonyl)pyrimidine-5-carboxamide], the EC50 (Homo sapiens) is 100 to 1000 nM.

As to `CC[C@H]1Cc2ncccc2S(=O)(=O)N(Cc2cc([C@@H](c3ccc4c(nnn4CC)c3C)C(C)(C)C(=O)Nc3cccnc3)ccc2C)C1` [Example 119, (S)-3-(3-(((S)-4-Ethyl-1,1-dioxido-4,5-dihydropyrido[2,3-f][1,2]thiazepin-2(3H)-yl)methyl)-4-methylphenyl)-3-(1-ethyl-4-methyl-1H-benzo[d][1,2,3]triazol-5-yl)-2,2-dimethyl-N-(pyridin-3-yl)propanamide], the EC50 (Homo sapiens) lay in the range of 1 to 10 nM. Still for that read-out and setting: the result for `CC[C@@H]1CN(Cc2cc([C@H](CC(=O)NCc3ncc[nH]3)c3ccc4c(nnn4CC)c3C)ccc2C)S(=O)(=O)c2cccnc2O1` [Example 8, (S)-N-((1H-Imidazol-2-yl)methyl)-3-(3-(((R)-4-ethyl-1,1-dioxido-3,4-dihydro-2H-pyrido[2,3-b][1,4,5]oxathiazepin-2-yl)methyl)-4-methylphenyl)-3-(1-ethyl-4-methyl-1H-benzo[d][1,2,3]triazol-5-yl)propanamide] reads 100 to 1000 nM.

On to `CC[C@@H]1CN(Cc2cc([C@@H](c3ccc4c(nnn4CC)c3C)C(C)(C)C(=O)Nc3cnc(CNC(=O)OC(C)(C)C)nc3)ccc2C)S(=O)(=O)c2ccccc2O1` [Example 188, tert-Butyl ((5-((S)-3-(3-(((R)-4-ethyl-1,1-dioxido-3,4-dihydro-2H-benzo[b][1,4,5]oxathiazepin-2-yl)methyl)-4-methylphenyl)-3-(1-ethyl-4-methyl-1H-benzo[d][1,2,3]triazol-5-yl)-2,2-dimethylpropanamido)pyrimidin-2-yl)methyl)carbamate], for which the EC50 (Homo sapiens) is 10 to 100 nM. Same read-out and setting: as for `CC[C@@H]1CN(Cc2cc([C@@H](c3ccc4c(nnn4CC)c3C)C(C)(C)C(=O)Nc3cnc(NC(CO)CO)nc3)ccc2C)S(=O)(=O)c2cccnc2O1` [Example 128, (S)-N-(2-((1,3-Dihydroxypropan-2-yl)amino)pyrimidin-5-yl)-3-(3-(((R)-4-ethyl-1,1-dioxido-3,4-dihydro-2H-pyrido[2,3-b][1,4,5]oxathiazepin-2-yl)methyl)-4-methylphenyl)-3-(1-ethyl-4-methyl-1H-benzo[d][1,2,3]triazol-5-yl)-2,2-dimethylpropanamide], the figure is 100 to 1000 nM. Same read-out and setting: the result for `CC[C@@H]1CN(Cc2cc([C@H](CC(=O)Nc3nn[nH]n3)c3ccc4c(nnn4CC)c3C)ccc2C)S(=O)(=O)c2cccnc2O1` [Example 67, (S)-3-(3-(((R)-4-Ethyl-1,1-dioxido-3,4-dihydro-2H-pyrido[2,3-b][1,4,5]oxathiazepin-2-yl)methyl)-4-methylphenyl)-3-(1-ethyl-4-methyl-1H-benzo[d][1,2,3]triazol-5-yl)-N-(2H-tetrazol-5-yl)propanamide] reads 100 to 1000 nM; that for `CC[C@H]1Cc2ncccc2S(=O)(=O)N(Cc2cc([C@H](CC(=O)Nc3cccnc3)c3ccc4c(nnn4CC)c3C)ccc2C)C1` [Example 103, (S)-3-(3-(((S)-4-Ethyl-1,1-dioxido-4,5-dihydropyrido[2,3-f][1,2]thiazepin-2(3H)-yl)methyl)-4-methylphenyl)-3-(1-ethyl-4-methyl-1H-benzo[d][1,2,3]triazol-5-yl)-N-(pyridin-3-yl)propanamide], 10 to 100 nM. On the same count and under the same terms, as for `CC[C@@H]1CN(Cc2cc([C@@H](c3ccc4c(nnn4CC)c3C)C(C)(C)C(=O)Nc3cccnc3)ccc2C)S(=O)(=O)c2cccnc2O1` [Example 120, (S)-3-(3-(((R)-4-Ethyl-1,1-dioxido-3,4-dihydro-2H-pyrido[2,3-b][1,4,5]oxathiazepin-2-yl)methyl)-4-methylphenyl)-3-(1-ethyl-4-methyl-1H-benzo[d][1,2,3]triazol-5-yl)-2,2-dimethyl-N-(pyridin-3-yl)propanamide], the figure is 1 to 10 nM; as for `CC[C@H]1Cc2ncccc2S(=O)(=O)N(Cc2cc([C@H](CC(=O)Nc3cncnc3)c3ccc4c(nnn4CC)c3C)ccc2C)C1` [Example 105, (S)-3-(3-(((S)-4-Ethyl-1,1-dioxido-4,5-dihydropyrido[2,3-f][1,2]thiazepin-2(3H)-yl)methyl)-4-methylphenyl)-3-(1-ethyl-4-methyl-1H-benzo[d][1,2,3]triazol-5-yl)-N-(pyrimidin-5-yl)propanamide], 10 to 100 nM.

Regarding `Cc1ccc(C(CC(=O)Nc2cccnc2)c2ccc(C#N)cc2C)cc1CN1CC(C)Cc2ccc(C(F)(F)F)cc2S1(=O)=O` (centres unmarked) [Example 70, 3-(4-Cyano-2-methylphenyl)-3-(4-methyl-3-((4-methyl-1,1-dioxido-8-(trifluoromethyl)-4,5-dihydrobenzo[f][1,2]thiazepin-2(3H)-yl)methyl)phenyl)-N-(pyridin-3-yl)propanamide], the half-maximal effective concentration (EC50) (Homo sapiens) fell in the range of 100 to 1000 nM. On the same count and under the same terms, as for `CC[C@@H]1CN(Cc2cc([C@H](CC(=O)Nc3nccn3C)c3ccc4c(nnn4CC)c3C)ccc2C)S(=O)(=O)c2cccnc2O1` [Example 17, (S)-3-(3-(((R)-4-Ethyl-1,1-dioxido-3,4-dihydro-2H-pyrido[2,3-b][1,4,5]oxathiazepin-2-yl)methyl)-4-methylphenyl)-3-(1-ethyl-4-methyl-1H-benzo[d][1,2,3]triazol-5-yl)-N-(1-methyl-1H-imidazol-2-yl)propanamide], the figure is 100 to 1000 nM.

In general, EC50 refers to the concentration needed to bring the measured effect to its halfway point.
